In patent publication US11771737B2, “Treating or preventing adverse liver conditions” (priority 2017, dated 2023):

Tests used:
[1] = test system: hepatic NKT cells; experiment: In vivo bile acids feeding, hepatic NKT cell levels; details: ABX-administered mice, oral gavage 6 mg/15 g body weight at 48, 24 and 16 hrs
Description: Mice were kept on ABX cocktail and fresh ABX was replaced every other day. Mice were fed with bile acids by oral gavage 48, 24 and 16 hrs prior to sacrifice.

[2] = test system: CXCL16; experiment: CXCL16 mRNA in SK-HEP1 cells administered bile acids; format: cell-based, human; details: 24 hours
Description: FIG. 34A is a dot plot showing CXCL16 mRNA levels measured by real-time PCR in SK-HEP1 cells administered different bile acids, in accordance with embodiments of the invention. n=6, p<0.05, one-way ANOVA.
(§1) Primary mice liver sinusoidal endothelia cells were isolated as previously described (Limmer et al., Nat. Med., 6: 1348-1354 (2000), incorporated by reference herein). Briefly, mice were CO2 euthanized, and then the portal vein was cannulated, and the liver was perfused with 0.05% collagenase in Ca^2+ deprived medium. Liver cells were dissociated, and parenchymal cells were killed by incubation in 0.04% collagenase in Gey's balanced salt solution at 37° C. for 15 minutes. Then density gradient centrifugation was performed using Nycodenz solution at the final solution of 1.089 g/cm^3. Liver sinusoidal endothelial cells (LSEC) were isolated using anti-LSEC microbeads (Miltenyi, Bergisch Gladbach, Germany) according to the manufacturer's instructions. LSECs or the human SK-HEP1 cell line (ATCC, HTB-52) were administered different bile acids for 24 hours. Gene expression was analyzed by real-time PCR. Taurocholic acid (TCA), chenodeoxycholic acid (CDCA), deoxycholic acid (DCA), and taurodeoxycholic acid (TDCA) were purchased from Sigma (now Millpore-Sigma, St. Louis, Mo., USA). […]

[3] = test system: CXCL16; experiment: CXCL16 mRNA in primary murine LSECs administered bile acids; format: cell-based, mice; details: primary murine LSECs in vitro, 24 hours
Description: FIG. 28E is a dot plot showing CXCL16 mRNA levels of isolated LSECs administered different bile acids, in accordance with embodiments of the invention. n=5, p<0.05, one-way ANOVA.
FIG. 28F is a dot plot showing CXCL16 mRNA levels of isolated LSECs administered a combination of T-b-MCA with T-w-MCA or ω-MCA. n=5, p<0.05, one-way ANOVA.
as §1, with “PCR.” for “PCR. Taurocholic acid (TCA), chenodeoxycholic acid (CDCA), deoxycholic acid (DCA), and taurodeoxycholic acid (TDCA) were purchased from Sigma (now Millpore-Sigma, St. Louis, Mo., USA).”

[4] = reported; cited from earlier work
[5] = test system: hepatic NKT cells; experiment: Flow cytometry of liver and spleen immune cell subsets of treated mice; format: in vivo; details: single antibiotic; for hepatic CD4+ or CD8+ T cells: FIGS. 29H and 29I; for hepatic NKT cells: naïve C57BL/6 mice
Method: Cells were surface-labelled with the indicated antibodies for 15 min at 4° C. Intracellular staining using a Foxp3/transcription factor staining buffer set (eBioscience, now part of ThermoFisher Scientific, Waltham, Mass., USA) was used according the manufacturer's instructions. Flow cytometry was performed on a BD LSRFortessa platform (BD Biosciences, San Jose, Calif., USA) and results were analyzed using FlowJo software version 9.3.1.2 (TreeStar, Ashland, Oreg., USA). Dead cells were excluded by using live/dead fixable near-IR dead cell staining kit (ThermoFisher Scientific).
The following antibodies were used for flow cytometry analysis: anti-TCRβ-BV510 (clone H57-587, Biolegend, San Diego, Calif., USA), PBS57/CD1d-tetramer-APC (NIH core facility, Bethesda, Md., USA), anti-CXCR6-FITC (clone SA051D1, Biolegend), anti-CD3-PE (clone 17A2, Biolegend), anti-CD4-PE (clone RM4-5, Biolegend), anti-CD4-Alexa Fluor 700 (clone GK1.5, Biolegend), anti-CD8-BV210 (clone 53-61 Biolegend), anti-CD19-PerCP/Cy5.5 (clone eBiolD3, eBioscience), anti-CD49b (clone DX5, eBioscience), anti-TCRγ/δ-PE, (clone GL3, BD pharmingen, BD Biosciences), anti-CD11b-BV421 (clone M1/70, Biolegend), anti-Ly6G-Alexa Fluor 700 (clone 1A8, Biolegend), anti-Ly6C-APC (clone HK1.4, Biolegend), anti-CD44-PE/Cy7 (clone IM7, eBioscience), anti-CD62L-PerCP/Cy5.5 (MEL-14, Biolegend), anti-CD69-Pacific blue (clone H1.2F3, Biolegend), anti-CD25-FITC (clone 7D4, BD pharmingen), anti-4-1BB-PE (clone 17B5, Biolegend), anti-Foxp3-Alexa Fluor 488 (clone 22F6, Biolegend), anti-Tbet-Pacific Blue (clone 4B10, Biolegend), anti-RORγ-PE (clone B2D, eBioscience), anti-PLZF-PerCP/Cy5.5 (clone 9E12, Biolegend), anti-CD1d-PE (clone 1B1, eBioscience), anti-IFNγ-PE (clone XMG1.2, BD Biosciences), and anti-TNFα-PerCP/Cy5.5 (clone MP6-XT22, Biolegend).
The following markers were used for identifying different immune cell subsets: TCRβ^+CD1d-Teteramer^+ for NKT cells, CD3^+CD4^hi for hepatic CD4^+ T cells, CD3^+CD8^+ for CD8^+ T cells, CD3^−CD19^+ for B cells, CD3^−CD49b^+ for NK cells, CD3^+TCRγ/δ^+ for γ/δ T cells, CD11b^+Ly6G^+Ly6C^lo for G-MDSC. Absolute numbers were calculated by multiplying frequencies obtained from flow cytometry by the total live mononuclear cell count, and then divided by liver weight.

[6] = test system: stool bacteria; experiment: Stool bacteria analysis by 16S rRNA sequencing; format: in vivo, mice
Method: (§2) FIG. 33A is a line graph showing stool bacteria analysis performed by 16S rRNA sequencing, in accordance with embodiments of the invention. Five week old mice were administered vancomycin for one week. Then vancomycin was stopped, and mice were given oral gavage of C. scindens or vehicle (cessation). Measurements were taken twenty-four hours after gavage. Alpha diversity is shown.
as §2, with “33B” for “33A”, “dot plot” for “line graph”, “Beta” for “Alpha”
Mice were fed with vancomycin in drinking water (Hospira, 0.5 g/L) for one week. Fresh antibiotic water was replaced every other day. One week later vancomycin was stopped, and the mice were given oral gavage of 10^9 C. scindens or vehicle (anaerobic glycerol) every day for 5 days. C. scindens was purchased from ATCC (35704), and grown under anaerobic conditions. One day after gavage, the colonization of C. scindens were confirmed by real-time PCR using primers specific for C. scindens.
Mouse stool DNA extraction and 16S V4 tregion amplification were performed on the liquid handling robots (epMotion 5075 and epMotion 5073, Eppendorf, Hamburg, Germany). The V4 region of the 16S rDNA gene (515F-806R) was sequenced, generating partially overlapping, paired-end reads on the Illumina MiSeq platform (Illumina, San Diego, Calif., USA). After quality control filtering, a total of 3,979,728 reads were processed with an average of 132,657 reads per sample. The demultiplexed FASTQ files containing the 16S rRNA gene sequences were filtered for chimeric sequences using the USEARCH (Edgar, Bioinformatics, 26: 2460-2461 (2010), incorporated by reference herein; version 8.1.1831) utility's UCHIME implementation and the ‘gold’ database (version microbiomeutil-r20110519). The reads were then binned into Operational Taxonomic Units (OTUs) at 97% similarity using USEARCH's cluster_otus command. The OTUs thus obtained were classified and aligned using QIIME (Caporaso et al., Nat. Methods, 7: 335-336 (2010), incorporated by reference herein; version 1.9.1) scripts. The assign_taxonomy.py script was used to assign taxonomy using the default RDP method (Wang et al., Appl. Environ. Microbiol., 73: 5261-5267 (2007), incorporated by reference herein) and the default GreenGenes database (DeSantis et al., Appl. Environ. Microbiol., 72: 5069-5072 (2006), incorporated by reference herein). This provided insight into the larger trends at higher taxonomic levels (such as order Clostridiales).
Next, the possible role of Clostridium species on liver NKT cell accumulation was tested in a colonization experiment. Clostridium scindens was chosen because it is commonly found in both mice and human and has a conserved bai (“bile acid inducible”) gene operon for the 7α-dehydroxylation reaction. Mice were fed with vancomycin for one week to induce hepatic NKT cells, then vancomycin was stopped, and the mice were given C. scindens or vehicle. The successful colonization with Clostridium scindens was confirmed (FIG. 32). One day after oral gavage, fecal bacterial were analyzed by 16S rRNA sequencing (FIGS. 33A and 33B, Table 1).

[7] = test system: Clostridum Cluster XIVa; experiment: Stool levels of Clostridium Cluster XIVa by real-time PCR; format: in vivo, mice; details: single antibiotic administration
Method: FIG. 31 is a dot plot showing the stool levels of Clostridum Cluster XIVa from single antibiotic administration measured by real-time PCR. Mice were administered vancomycin, neomycin, cefoparazone or H2O. n=4 for H2O, 10 for vancomycin, 5 for neomycin, p<0.05, one-way ANOVA.
The 7α-dehydroxylation reaction is the most quantitatively important process performed by the gut bacteria in the production of secondary bile acids. This multistep biochemical process is restricted to a narrow phylogenetic group of gram-positive bacterial species belonging to the Clostridium cluster XIV.

[8] = oral vancomycin, cited from earlier work
[9] = fecal bacteria, one day after oral gavage

Compound | cxcl16 mRNA expression [2] | bile acids in the gut [4] | hepatic CD4+ or CD8+ T cells [5] | hepatic NKT cells [5] | Clostridium in stool [7] | other results
C[C@H](CCC(=O)O)[C@H]1CC[C@H]2[C@@H]3[C@H](O)C[C@@H]4C[C@H](O)CC[C@]4(C)[C@H]3CC[C@]12C [CDCA, chenodeoxycholic acid] | induced |  |  |  |  | hepatic NKT accumulation [1]: enhanced NKT cell accumulation
C[C@H](CCC(=O)NCCS(=O)(=O)O)[C@H]1CC[C@H]2[C@@H]3[C@@H](O)[C@@H](O)[C@@H]4C[C@H](O)CC[C@]4(C)[C@H]3CC[C@]12C [T-β-MCA, Tauro-β-muricholic acid] |  |  |  |  |  | cxcl16 mRNA expression [3]: induced
C[C@H](CCC(=O)NCCS(=O)(=O)O)[C@H]1CC[C@H]2[C@@H]3[C@H](O)C[C@@H]4C[C@H](O)CC[C@]4(C)[C@H]3C[C@H](O)[C@]12C [TCA, Taurocholic acid] | induced |  |  |  |  | 
CCN1CCN(C(=O)N[C@@H](C(=O)N[C@@H]2C(=O)N3C(C(=O)O)=C(CSc4nnnn4C)CS[C@H]23)c2ccc(O)cc2)C(=O)C1=O [cefoperazone] |  | deplete secondary bile acids and increase primary bile acids in the gut | No significant changes | increase of liver NKT cells |  | 
CN[C@H](CC(C)C)C(=O)N[C@H]1C(=O)N[C@@H](CC(N)=O)C(=O)N[C@H]2C(=O)N[C@H]3C(=O)N[C@H](C(=O)N[C@H](C(=O)O)c4cc(O)cc(O)c4-c4cc3ccc4O)[C@H](O)c3ccc(c(Cl)c3)Oc3cc2cc(c3O[C@@H]2O[C@H](CO)[C@@H](O)[C@H](O)[C@H]2O[C@H]2C[C@](C)(N)[C@H](O)[C@H](C)O2)Oc2ccc(cc2Cl)[C@H]1O [vancomycin] |  | deplete secondary bile acids and increase primary bile acids in the gut | No significant changes | sufficient to increase hepatic NKT cells | depleted Clostridium | Bacteroidales [6, 9]: 0.0%; Burkholderiales [6, 9]: 4.4%; Clostridiales [6, 9]: 3.9%; Enterobacteriales [6, 9]: 10.7%; Lactobacillales [6, 9]: 43.7%; Verrucomicrobiales [6, 9]: 34.3%; change of stool bacteria populations, in words ([6]; vancomycin compared to H2O group, C. scindens gavage after vancomycin): reduction of Clostridiales and Bacteroidales but an expansion of Verrucomicrobiales; fecal secondary bile acids ([8]; obese individuals): decreased fecal secondary bile acids; primary bile acids in plasma ([8]; postprandial): postprandial increase in primary bile acids in plasma
neomycin |  |  | No significant changes | little effect | could not remove Clostridium | 
